Reference: ChEMBL document CHEMBL2034891, “Discovery, design and synthesis of Y-shaped peroxisome proliferator-activated receptor δ agonists as potent anti-obesity agents in vivo” (Eur J Med Chem, 2012)
Active and inactive are the calls of the source. No cut-off for these calls is given here.

Key:
[1] = target: T1, Peroxisome proliferator-activated receptor gamma (Homo sapiens, UniProt P37231); assay: Transactivation activity at human PPARgamma expressed in african green monkey CV1 cells after 24 hrs by luciferase reporter gene assay; format: cell-based, CV-1
T1 sequence (P37231 whole entry): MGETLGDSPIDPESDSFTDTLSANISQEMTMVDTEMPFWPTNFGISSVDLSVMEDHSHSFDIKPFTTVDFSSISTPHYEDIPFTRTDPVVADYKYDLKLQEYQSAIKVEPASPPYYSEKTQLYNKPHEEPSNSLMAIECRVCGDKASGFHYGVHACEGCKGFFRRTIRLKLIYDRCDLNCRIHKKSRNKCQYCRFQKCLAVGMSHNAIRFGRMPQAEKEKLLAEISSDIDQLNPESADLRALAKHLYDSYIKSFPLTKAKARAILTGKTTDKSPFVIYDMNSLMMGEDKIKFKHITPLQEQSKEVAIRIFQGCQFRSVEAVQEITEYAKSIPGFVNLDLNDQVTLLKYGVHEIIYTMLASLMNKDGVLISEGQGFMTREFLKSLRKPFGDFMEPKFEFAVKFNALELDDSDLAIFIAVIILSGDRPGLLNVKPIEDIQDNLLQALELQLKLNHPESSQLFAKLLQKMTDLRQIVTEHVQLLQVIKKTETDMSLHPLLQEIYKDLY

[2] = target: T2, Peroxisome proliferator-activated receptor alpha (Homo sapiens, UniProt Q07869); assay: Transactivation activity at human PPARalpha expressed in african green monkey CV1 cells after 24 hrs by luciferase reporter gene assay; format: cell-based, CV-1
T2 sequence (Q07869 whole entry): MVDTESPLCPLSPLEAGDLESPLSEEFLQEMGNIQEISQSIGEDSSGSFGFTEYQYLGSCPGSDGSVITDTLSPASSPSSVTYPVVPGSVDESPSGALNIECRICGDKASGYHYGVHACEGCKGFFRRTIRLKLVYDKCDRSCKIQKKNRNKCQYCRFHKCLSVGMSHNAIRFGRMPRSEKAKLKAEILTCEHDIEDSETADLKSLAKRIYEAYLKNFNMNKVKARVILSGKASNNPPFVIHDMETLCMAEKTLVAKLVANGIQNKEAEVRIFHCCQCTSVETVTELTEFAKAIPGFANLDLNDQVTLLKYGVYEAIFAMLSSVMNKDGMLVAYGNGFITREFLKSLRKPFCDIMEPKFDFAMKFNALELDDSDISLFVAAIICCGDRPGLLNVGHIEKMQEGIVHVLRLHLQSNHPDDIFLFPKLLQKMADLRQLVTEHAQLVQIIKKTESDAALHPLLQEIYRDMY

[3] = target: T3, Peroxisome proliferator-activated receptor delta (Homo sapiens, UniProt Q03181); assay: Transactivation activity at human PPARdelta expressed in african green monkey CV1 cells after 24 hrs by luciferase reporter gene assay; format: cell-based, CV-1
T3 sequence (Q03181 whole entry): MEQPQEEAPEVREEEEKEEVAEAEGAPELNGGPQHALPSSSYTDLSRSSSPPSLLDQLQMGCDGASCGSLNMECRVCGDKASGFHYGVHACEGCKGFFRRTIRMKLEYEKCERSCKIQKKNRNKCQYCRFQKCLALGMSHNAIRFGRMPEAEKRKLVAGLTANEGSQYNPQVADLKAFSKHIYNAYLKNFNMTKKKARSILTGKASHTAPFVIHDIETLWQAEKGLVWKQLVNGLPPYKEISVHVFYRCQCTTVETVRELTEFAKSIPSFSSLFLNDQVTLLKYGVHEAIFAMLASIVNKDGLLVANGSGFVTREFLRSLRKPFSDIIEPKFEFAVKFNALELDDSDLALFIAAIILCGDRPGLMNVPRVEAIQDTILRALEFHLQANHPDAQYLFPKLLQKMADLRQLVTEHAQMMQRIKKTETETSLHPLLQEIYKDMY

Homo sapiens = species: Homo sapiens; assay: Selectivity ratio of EC50 for human PPARalpha to EC50 for human PPARdelta
Mus musculus [4] = assay: Antiobesity activity in high-fat diet fed C57BL/6 mouse assessed as decrease in body weight gain at 10 mg/kg, po QD relative to control; format: functional; parameters: scale not given: the % may be the effect or the level left
[5] = target: T3, Peroxisome proliferator-activated receptor delta; assay: Binding affinity at human GST-tagged PPARdelta ligand binding domain after 1 hr by time-resolved FRET analysis
Mus musculus [6] = assay: Antiobesity activity in high-fat diet fed C57BL/6 mouse assessed as increase in body weight at 10 mg/kg, po QD measured after 78 days (reference value: 102%); format: functional
[7] = Oral bioavailability in ICR mouse at 10 mg/kg; format: ADME, organism-based; settings: in vivo
Mus musculus [8] = assay: Antiobesity activity in high-fat diet fed C57BL/6 mouse assessed as absence of fatty liver at 10 mg/kg, po QD hematoxylin and eosin staining-based histological analysis; format: functional, organism-based; parameters: dose 10 mg/kg
[9] = Terminal half life in ICR mouse at 10 mg/kg, po; format: ADME, organism-based; parameters: dose 10 mg/kg, route oral; settings: in vivo, read-out: beta t1/2 (converted)
Mus musculus [10] = assay: Antiobesity activity in high-fat diet fed C57BL/6 mouse assessed as decrease in lipid accumulation on white adipose tissue at 10 mg/kg, po QD hematoxylin and eosin staining-based histological analysis; format: functional, organism-based; parameters: dose 10 mg/kg
Mus musculus [11] = assay: AUMC in ICR mouse at 1 mg/kg, iv; format: ADME, organism-based; parameters: dose 1 mg/kg, route intravenous; settings: in vivo
Mus musculus [12] = assay: AUMC in ICR mouse at 10 mg/kg, po; format: ADME, organism-based; parameters: dose 10 mg/kg, route oral; settings: in vivo
Mus musculus [13] = assay: Toxicity in high-fat diet fed C57BL/6 mouse assessed as decrease in food intake at 10 mg/kg, po QD relative to control; format: organism-based; parameters: dose 10 mg/kg, route oral; settings: in vivo
[14] = Tmax in ICR mouse at 1 mg/kg, iv; format: ADME, organism-based; parameters: dose 1 mg/kg, route intravenous; settings: in vivo
[15] = Clearance in ICR mouse at 1 mg/kg, iv; format: ADME, organism-based; parameters: dose 1 mg/kg, route intravenous; settings: in vivo
[16] = Mean residence time in ICR mouse at 10 mg/kg, po; format: ADME, organism-based; parameters: dose 10 mg/kg, route oral; settings: in vivo
[17] = AUC in ICR mouse at 1 mg/kg, iv; format: ADME, organism-based; parameters: dose 1 mg/kg, route intravenous; settings: plasma
[18] = Clearance in ICR mouse at 10 mg/kg, po; format: ADME, organism-based; parameters: dose 10 mg/kg, route oral; settings: in vivo
[19] = Cmax in ICR mouse at 10 mg/kg, po; format: ADME, organism-based; parameters: dose 10 mg/kg, route oral; settings: in vivo
[20] = Mean residence time in ICR mouse at 1 mg/kg, iv; format: ADME, organism-based; parameters: dose 1 mg/kg, route intravenous; settings: in vivo
Mus musculus [21] = assay: Dose normalized AUC in ICR mouse at 10 mg/kg, po; format: ADME, organism-based; parameters: dose 10 mg/kg, route oral; settings: in vivo
Mus musculus [22] = assay: Dose normalized AUC in ICR mouse at 1 mg/kg, iv; format: ADME, organism-based; parameters: dose 1 mg/kg, route intravenous; settings: in vivo
[23] = AUC in ICR mouse at 10 mg/kg, po; format: ADME, organism-based; parameters: dose 10 mg/kg, route oral; settings: plasma
Mus musculus [24] = assay: Antiobesity activity in high-fat diet fed C57BL/6 mouse assessed as decrease in serum free fatty acid level at 10 mg/kg, po QD relative to vehicle-treated control; format: functional; parameters: scale not given: the % may be the effect or the level left
[25] = Cmax in ICR mouse at 1 mg/kg, iv; format: ADME, organism-based; parameters: dose 1 mg/kg, route intravenous; settings: in vivo
Mus musculus [26] = assay: Antiobesity activity in high-fat diet fed C57BL/6 mouse assessed as decrease in serum triglyceride level at 10 mg/kg, po QD relative to vehicle-treated control; format: functional; parameters: scale not given: the % may be the effect or the level left
[27] = Volume of distribution at steady state in ICR mouse at 1 mg/kg, iv; format: ADME, organism-based; parameters: dose 1 mg/kg, route intravenous; settings: in vivo, read-out: Vdss
[28] = Terminal half life in ICR mouse at 1 mg/kg, iv; format: ADME, organism-based; parameters: dose 1 mg/kg, route intravenous; settings: in vivo, read-out: beta t1/2 (converted)
[29] = Tmax in ICR mouse at 10 mg/kg, po; format: ADME, organism-based; parameters: dose 10 mg/kg, route oral; settings: in vivo
Mus musculus [30] = assay: Volume of distribution at steady state in ICR mouse at 10 mg/kg, po; format: ADME, organism-based; parameters: dose 10 mg/kg, route oral; settings: in vivo
Mus musculus [31] = assay: Antiobesity activity in high-fat diet fed C57BL/6 mouse assessed as decrease in lipid accumulation on brown adipose tissue at 10 mg/kg, po QD hematoxylin and eosin staining-based histological analysis; format: functional, organism-based; parameters: dose 10 mg/kg

`Cc1cc(SC(c2sc(-c3ccc(C(F)(F)F)cc3)nc2C)C(c2ccccc2)c2ccccc2)ccc1OCC(=O)O` (configuration not stated) showed an EC50 [1] of over 10000 nM, an EC50 [2] of over 10000 nM and an EC50 [3] of 523 nM.

In the case of `COc1ccc(CC(Sc2ccc(OCC(=O)O)c(C)c2)c2sc(-c3ccc(C(F)(F)F)cc3)nc2C)cc1` (configuration not stated), the EC50 [1] is reported as over 10000 nM, the EC50 [2] is reported as over 10000 nM and the EC50 [3] is reported as 4.8 nM.

For `Cc1cc(SC(CCc2ccccc2)c2sc(-c3ccc(C(F)(F)F)cc3)nc2C)ccc1OCC(=O)O` (configuration not stated), the EC50 [1] was over 10000 nM, the EC50 [2] was over 10000 nM and the EC50 [3] was 2.6 nM.

For `Cc1cc(SC(Cc2c(F)cccc2F)c2sc(-c3ccc(C(F)(F)F)cc3)nc2C)ccc1OCC(=O)O` (configuration not stated), the Ratio EC50 (Homo sapiens) was 10000, the EC50 [1] was over 10000 nM and the EC50 [2] was over 10000 nM. It also gave an EC50 [3] of 2.1 nM and an Activity (Mus musculus [4]) of 35%.

For `Cc1cc(SC(CC(C)C)c2sc(-c3ccc(C(F)(F)F)cc3)nc2C)ccc1OCC(=O)O` (configuration not stated), the EC50 [1] was over 10000 nM, the EC50 [2] was 592 nM and the EC50 [3] was 1.1 nM.

`CCCc1c(OCCCSc2ccc(CC(=O)O)cc2Cl)ccc2c(C(F)(F)F)noc12` gave an EC50 [5] of 7.9 nM.

Molecule `Cc1cc(SC(CCCCCCCc2ccccc2)c2sc(-c3ccc(C(F)(F)F)cc3)nc2C)ccc1OCC(=O)O` (configuration not stated) has an EC50 [1] of over 10000 nM and an EC50 [2] of over 10000 nM.

Molecule `Cc1cc(SC(Cc2cc(F)c(F)c(F)c2)c2sc(-c3ccc(C(F)(F)F)cc3)nc2C)ccc1OCC(=O)O` (configuration not stated) has an EC50 [1] of over 10000 nM, an EC50 [2] of over 10000 nM and an EC50 [3] of 6.7 nM.

Molecule `Cc1cc(SC(CCCc2ccccc2)c2sc(-c3ccc(C(F)(F)F)cc3)nc2C)ccc1OCC(=O)O` (configuration not stated) has an EC50 [1] of over 10000 nM and an EC50 [2] of over 10000 nM.

In the case of `Cc1cc(SC(Cc2c(F)c(F)c(F)c(F)c2F)c2sc(-c3ccc(C(F)(F)F)cc3)nc2C)ccc1OCC(=O)O` (configuration not stated), the Ratio EC50 (Homo sapiens) is reported as 10000, the EC50 [1] is reported as over 10000 nM and the EC50 [2] is reported as over 10000 nM. For the same molecule, the EC50 [3] was 8.1 nM.

In the case of `Cc1cc(SC(CC2CC2)c2sc(-c3ccc(C(F)(F)F)cc3)nc2C)ccc1OCC(=O)O` (configuration not stated), the EC50 [1] is reported as over 10000 nM, the EC50 [2] is reported as 861 nM and the EC50 [3] is reported as 1.1 nM.

`Cc1cc(SC(Cc2ccccc2)c2sc(-c3ccc(C(F)(F)F)cc3)nc2C)ccc1OCC(=O)O` (configuration not stated) showed an Activity (Mus musculus [6]) of 60%, a bioavailability [7] of 88% and a Ratio EC50 (Homo sapiens) of 10000. For the same molecule, the Activity (Mus musculus [8]) was “Active”, the half-life [9] was 5.27 h and the Activity (Mus musculus [10]) was “Active”. For the same molecule, the AUMC (Mus musculus [11]) was 243 hr.hr.ug/ml, the AUMC (Mus musculus [12]) was 3340 hr.hr.ug/ml and the Activity (Mus musculus [13]) was “Non-toxic”. It also gave a Tmax [14] of 0.33 h, a clearance [15] of 0.41 mL/min/kg and an MRT [16] of 9.32 h. The AUC [17] was 40.6 µg·h/mL, the EC50 [5] was 13 nM and the EC50 [1] was over 10000 nM. The EC50 [2] was over 10000 nM, the EC50 [3] was 1.6 nM and the CL/F [18] was 0.47 mL/min/kg. The Cmax [19] was 37900 ng/mL, the MRT [20] was 5.98 h and the AUC/dose (Mus musculus [21]) was 35.7 kg·µg·h/mL/mg. It also gave an AUC/dose (Mus musculus [22]) of 40.6 kg·µg·h/mL/mg, an AUC [23] of 357 µg·h/mL and an Activity (Mus musculus [24]) of 26%. It also gave a Cmax [25] of 8980 ng/mL, an Activity (Mus musculus [26]) of 29% and a Vd [27] of 0.131 L/kg. It also gave a half-life [28] of 3.69 h, a Tmax [29] of 2.75 h and a Vdss (Mus musculus [30]) of 0.212 L/kg. The Activity (Mus musculus [31]) was “Active”.

In the case of `Cc1cc(SC(Cc2c(Cl)cccc2Cl)c2sc(-c3ccc(C(F)(F)F)cc3)nc2C)ccc1OCC(=O)O` (configuration not stated), the Ratio EC50 (Homo sapiens) is reported as 10000, the EC50 [1] is reported as over 10000 nM and the EC50 [2] is reported as over 10000 nM. For the same molecule, the EC50 [3] was 2.8 nM.
